Results published in BigSolDB 2.1.

O=S(=O)([O-])Oc1ccc(C(c2ccc(OS(=O)(=O)[O-])cc2)c2ccccn2)cc1.[Na+].[Na+]
solubility (mole fraction)
Conditions | in DMF | in DMSO | in acetic acid | in acetonitrile | in ethanol | in methanol | in n-butanol | in n-propanol | in water
298.15 K | 0.0269 | 0.0049 | 0.0014 | 0.0001 | 0.0011 | 0.0096 | 0.0001 | 0.0002 | 0.0215
303.15 K | 0.0321 | 0.0058 | 0.0019 | 0.0001 | 0.0015 | 0.0116 | 0.0002 | 0.0004 | 0.0252
308.15 K | 0.0387 | 0.0069 | 0.0025 | 0.0003 | 0.0021 | 0.0142 | 0.0005 | 0.0007 | 0.0299
313.15 K | 0.0463 | 0.0083 | 0.0034 | 0.0005 | 0.003 | 0.0178 | 0.0011 | 0.0014 | 0.0347
318.15 K | 0.0561 | 0.0099 | 0.0046 | 0.001 | 0.0041 | 0.0213 | 0.0022 | 0.0028 | 0.0398
